Assay [1] can be described thus: Sweetness intensity of chewing gums versus chewing time, trained panel of experts (0-15 scale). The class given is in vivo. Conditions: for average sweetness loss rate at 6-10 minutes / average sweetness intensity at 6-10 minutes / average sweetness loss rate at 10-20 minutes / average sweetness intensity at 10-20 minutes: isosweet sweetener concentrations; for average sweetness loss rate at 6-10 minutes / average sweetness intensity at 6-10 minutes: chewing time 6-10 minutes; for average sweetness intensity at 6-10 minutes / average sweetness intensity at 10-20 minutes: scale 0-15; for average sweetness loss rate at 10-20 minutes / average sweetness intensity at 10-20 minutes: chewing time 10-20 minutes. Here is the method:
FIG. 1 is a plot of the sweetness intensity of chewing gum prepared with sugar (sucrose), saccharin, aspartame, acesulfame-K, sucralose or neotame as a function of chewing time. Each chewing gum comprises the corresponding sweetener at a sweetener concentration that provides an identical (“isosweet”) degree of sweetness. The sweetness intensity was measured by a trained panel of experts and is expressed as the amount of sweetness based on a sweetness intensity scale of 0-15 units.
The sweetness profile of neotame in chewing gum is illustrated in FIG. 1. Also illustrated in FIG. 1 is a comparison of the sweetness intensity profiles, as measured by a trained panel of experts, of chewing gums prepared with neotame, aspartame, acesulfame-K, saccharin, sucralose, and sugar (sucrose). The sweetness detected is expressed as the amount of sweetness based on a universal sweetness scale of 0-15, and the values were obtained by having subjects of the trained panel chew pieces of gum containing the sweetener and reporting perceived sweetness after various chewing intervals. Since each chewing gum was prepared with an “isosweet” concentration (i.e., same level of sweetness; e.g., 100 ppm neotame and 3000 ppm aspartame are isosweet concentrations) of the respective sweetener and the scale is a measure of absolute sweetness at any point during chewing, the different sweetener profiles can be compared directly to each other.
Table 1 summarizes the sweetness intensity loss rates and average sweetness intensities which occur at a chewing time period of between 6 and 10 minutes and those which occur at a chewing time period between 10 and 20 minutes for a variety of sweeteners. The sweetness intensity loss rate is calculated as the difference in sweetness intensities measured at any two time points divided by the number of minutes of the time interval, and approximates the mathematical slope of the downward trend of sweetness intensity over time.
These values were determined by calculating the average sweetness intensity measured at the specified evaluation times. For example, for the chewing gum comprising neotame at between 6 and 10 minutes, the average sweetness intensity is determined to be (5.2+4.6+4.2)/3=4.7.
The advantage of sweetness extension provided by neotame can also be illustrated by comparison of the sweetness intensity half-lives over time. Table 2 summarizes the half-lives of sweetness intensity of chewing gums comprising different sweeteners after the maximum sweetness intensities (around two minutes) are reached. The half-life is a measure of the time of chewing in which half of the sweetness is lost relative to the time in which the sweetness intensity maximum is achieved.
(§1) The sensory profiling of chewing gum samples was carried out using the Spectrum Method of Descriptive Analysis (Meilgaard, M., Civille, G. V., Carr, B. T, 1999. Sensory Evaluation Techniques, 3rd Ed. CRC Press, New York, p. 173-229). Extensive sensory training was conducted in order to familiarize the panel, consisting of 6-8 individuals, with a product category, exposing the panel to the flavor attributes of the category and in-depth practice by the panelists in the use of a fifteen point scale for describing intensity differences. Once trained, the method enabled the trained panelists to indicate the sensory intensity of either sweetness intensity or flavor intensity in a universal context, where 0 indicates “none” of the attribute present, 2 approximates “threshold” intensities, 5 “slight or low” level, 7.5 “moderate” intensity, 10 “strong” and 15 “extreme”.
Chewing of the gums was initiated by the panel leader while starting a timer. As the time intervals 0.25, 0.5, 1.0, 2.0, 3.0, 4.0, 6.0, 8.0, 10.0, 12.0, 16.0, and 20.0 minutes approached, the panel leader gave panelists a five second warning and then called out the time to rate the attributes. To minimize fatigue, 3-4 samples were evaluated during one session. […]

The nature of assay [2]: Peppermint flavor intensity of chewing gums versus chewing time, trained panel of experts (0-15 scale). The format is in vivo. As to the method: FIG. 2 is a plot of peppermint flavor intensity verses chewing time of chewing gums prepared with isosweet levels of aspartame (3000 ppm) and neotame (100 ppm). The chewing gum prepared with aspartame comprised a 1.5 wt % peppermint flavor, while the four neotame chewing gums comprised peppermint flavor at concentrations of 1.5, 1.25, 1.00, and 0.75 wt %. The peppermint flavor intensity was measured by a trained panel of experts and is plotted as a function of chewing time. The peppermint flavor intensity is expressed as the amount of peppermint flavor based on a universal peppermint intensity scale of 0-15 units.
As in the case of sweetness intensity comparisons, since the chewing gums were prepared with an identical amount of flavor and the scale is a measure of absolute flavor at any point during chewing, the different flavor profiles can be compared directly to each other. The rate of flavor intensity loss of the chewing gum comprising neotame is 0.0875 flavor intensity units per minute, while that of chewing gum comprising aspartame was determined to be 0.150 flavor intensity units per minute. Thus, the rate of flavor loss of a chewing gum comprising neotame is nearly half that of the flavor loss for a chewing gum comprising aspartame at an isosweet level and containing an equal concentration of peppermint flavor.
Table 4 summarizes the half-lives of both sweetness and flavor of chewing gums prepared with aspartame (3000 ppm) with 1.5 wt % flavor and neotame (100 ppm) with 1.5, 1.25, 1.00, and 0.75 wt % flavor amounts. The half-life is the time in minutes for the intensity to fall to half of its maximum value (sweetness, 2 minutes; flavor, 4 minutes).
as §1
Chewing of the gums was initiated by the panel leader while starting a timer. As the time intervals 0.25, 0.5, 1.0, 2.0, 3.0, 4.0, 6.0, 8.0, 10.0, 12.0, 16.0, and 20.0 minutes approached, the panel leader gave panelists a five second warning and then called out the time to rate the attributes. To minimize fatigue, 3-4 samples were evaluated during one session. Samples were assessed in duplicate, presented in a balanced order, unwrapped in two ounce plastic cups, and randomly coded with three-digit numbers. The panelists were given a ten minute break between samples to minimize carry-over effects. Water, Mott's Natural Applesauce and unsalted soda crackers were given as palate cleansers.
The data was analyzed for standard ANOVA for across sample comparison of attributes at each chew time. Data was then plotted as a graph of intensities vs. chewing time yielding either a sweetness or flavor profile for the entire chew time.

For assay [3] the following is noted: relative to sucrose; cited from earlier work.
Setting [4] is: chewing time in which half of the sweetness is lost relative to the sweetness intensity maximum, isosweet concentrations.
Where [5] appears, read: 1.50% flavor, time for intensity to fall to half of its maximum (4 minutes), aspartame 3000 ppm / neotame 100 ppm.
The mark [6] stands for this setting: 1.50% peppermint flavor, isosweet aspartame 3000 ppm / neotame 100 ppm.
Where [7] appears, read: 1.50% flavor, time for intensity to fall to half of its maximum (2 minutes), aspartame 3000 ppm / neotame 100 ppm.
The mark [8] stands for this setting: 0.75% peppermint flavor, neotame 100 ppm.
[9] abbreviates: 1.00% peppermint flavor, neotame 100 ppm.
Setting [10] is: 1.25% peppermint flavor, neotame 100 ppm.
Setting [11] is: flavor amounts less than full-flavored (reduced to at least around 50%).
The mark [12] stands for this setting: full-flavored chewing gum, about 4 to about 20 minutes of chewing.

“And” between values parts separate entries of the source, which are not always exact repeats. Equal entries are not always repeated. Where a SMILES comes first, the peptide text is derived from it. Some results are limits rather than exact numbers.

Consider `CC1=CC(=O)[N-]S(=O)(=O)O1.[K+]` [acesulfame-K, the potassium salt of 3,4-dihydro-6-methyl-1,2,3-oxathiazine-4-one-2,2-dioxide], for which, in assay [1] (chewing gum), the “average sweetness loss rate at 6-10 minutes” value turned out to be 0.45 intensity units/min, the “average sweetness intensity at 6-10 minutes” value is 4.3 intensity units, the “average sweetness loss rate at 10-20 minutes” value stood at 0.26 intensity units/min and the “average sweetness intensity at 10-20 minutes” value turned out to be 2.0 intensity units. The “half-life of sweetness intensity” value in assay [1] (setting [4]) amounted to 5.5 min.

In the case of `COC(=O)[C@H](Cc1ccccc1)NC(=O)[C@@H](N)CC(=O)O` [aspartame] (HELM PEPTIDE1{D.F.[CO[*:1]]}$$$$V2.0), the “half-life of peppermint flavor intensity” value in assay [2] (setting [5]) came out at 19.7 min. In assay [2] (setting [6]), the “average flavor intensity at 4-20 minutes” value came to 4.2 intensity units and the “flavor loss rate at 4-20 minutes” value is 0.150 flavor intensity units per minute. The “half-life of sweetness intensity” value in assay [1] (setting [7]) was 7.6 min. Besides, in assay [1] (chewing gum), the “average sweetness loss rate at 6-10 minutes” value stood at 0.52 intensity units/min, the “average sweetness intensity at 6-10 minutes” value turned out to be 4.6 intensity units, the “average sweetness loss rate at 10-20 minutes” value is 0.25 intensity units/min and the “average sweetness intensity at 10-20 minutes” value came out at 2.3 intensity units. Further, in assay [1] (setting [4]), the “half-life of sweetness intensity” value was determined as 6.4 min.

Turning to `COC(=O)[C@H](Cc1ccccc1)NC(=O)[C@H](CC(=O)O)NCCC(C)(C)C` [neotame, N-[N-(3,3-dimethylbutyl)-L-α-aspartyl]-L-phenylalanine 1-methyl ester], the “half-life of peppermint flavor intensity” value in assay [2] (0.75% flavor, neotame 100 ppm) stood at 33.1 min; in assay [2] (1.00% flavor, neotame 100 ppm), 31.7 min; in assay [2] (1.25% flavor, neotame 100 ppm), 31.3 min; in assay [2] (setting [5]), 44.3 min. Further, the “average flavor intensity at 4-20 minutes” value stood at 3.9 intensity units in assay [2] (setting [8]), 4.0 intensity units in assay [2] (setting [9]), 4.2 intensity units in assay [2] (setting [10]) and 4.6 intensity units in assay [2] (setting [6]). Further, the “flavor loss rate at 4-20 minutes” value is 0.070 flavor intensity units per minute in assay [2] (setting [8]); 0.075 flavor intensity units per minute in assay [2] (setting [9]); 0.088 flavor intensity units per minute in assay [2] (setting [10]); 0.0875 flavor intensity units per minute and 0.088 flavor intensity units per minute in assay [2] (setting [6]). The “average flavor intensities at 4-20 minutes” value in assay [2] (chewing gums comprising neotame having less flavor amounts than 1.5%) was “around 4.0 intensity units”. Besides, the average flavor intensity in assay [2] (setting [11]) is listed as at least 3.5 flavor intensity units; in assay [2] (setting [12]), at least 4 flavor intensity units. For the same compound, the “average flavor loss rate” value in assay [2] (setting [11]) and in assay [2] (setting [12]) was “less than 0.1 flavor intensity units per minute” throughout. In addition, the “half-life of sweetness intensity” value in assay [1] (0.75% flavor, neotame 100 ppm) stood at 16.9 min; in assay [1] (1.00% flavor, neotame 100 ppm), 20.7 min; in assay [1] (1.25% flavor, neotame 100 ppm), 17.2 min; in assay [1] (setting [7]), 17.0 min; in assay [1] (setting [4]) it was 14.9 min. The “sweetness intensity at 6 minutes” value in assay [1] (chewing gum, 100 ppm neotame, 6 minutes of chewing) is listed as 5.2 sweetness intensity units. In addition, the “sweetness intensity at 10 minutes” value in assay [1] (chewing gum, 100 ppm neotame, 10 minutes of chewing) stood at 4.2 sweetness intensity units. For the same compound, in assay [1] (chewing gum, 100 ppm neotame, evaluation time between 6 and 10 minutes), the “sweetness intensity at 8 minutes” value amounted to 4.6 sweetness intensity units. In addition, in assay [3], the “sweetness potency (× sweeter than sucrose)” value is “about 8000 ×”.

In the case of `O=C1NS(=O)(=O)c2ccccc21` [saccharin], in assay [1] (chewing gum), the “average sweetness loss rate at 6-10 minutes” value was 0.52 intensity units/min, the “average sweetness intensity at 6-10 minutes” value is on record as 3.1 intensity units, the “average sweetness loss rate at 10-20 minutes” value was determined as 0.15 intensity units/min and the “average sweetness intensity at 10-20 minutes” value is listed as 1.2 intensity units. For the same compound, the “half-life of sweetness intensity” value in assay [1] (setting [4]) came to 4.5 min.

`OC[C@H]1O[C@H](O[C@]2(CCl)O[C@H](CCl)[C@@H](O)[C@@H]2O)[C@H](O)[C@@H](O)[C@H]1Cl` [sucralose]: in assay [1] (chewing gum), the “average sweetness loss rate at 6-10 minutes” value is reported as 0.52 intensity units/min, the “average sweetness intensity at 6-10 minutes” value was found to be 3.3 intensity units, the “average sweetness loss rate at 10-20 minutes” value is 0.16 intensity units/min and the “average sweetness intensity at 10-20 minutes” value is listed as 1.3 intensity units. Further, the “half-life of sweetness intensity” value in assay [1] (setting [4]) worked out at 4.5 min.

As to `OC[C@H]1O[C@@](CO)(O[C@H]2O[C@H](CO)[C@@H](O)[C@H](O)[C@H]2O)[C@@H](O)[C@@H]1O` [sucrose], in assay [1] (chewing gum), the “average sweetness loss rate at 6-10 minutes” value was 0.45 intensity units/min, the “average sweetness intensity at 6-10 minutes” value is recorded as 2.1 intensity units, the “average sweetness loss rate at 10-20 minutes” value is 0.11 intensity units/min and the “average sweetness intensity at 10-20 minutes” value amounted to 0.6 intensity units. In addition, the “half-life of sweetness intensity” value in assay [1] (setting [4]) came to 3.5 min.

The values are drawn from patent US20020164397A1, “N-[N-(3, 3-DIMETHYLBUTYL)-L-ALPHA-ASPARTYL]-L-PHENYLALANINE 1-METHYL ESTER AS A SWEETENER IN CHEWING GUM” (priority 1998, published 2002).
